Measurements: US8969360B2, “Compounds useful as inhibitors of ATR kinase” (Vertex Pharmaceuticals Incorporated, priority 2013, dated 2015)

Key:
ATR kinase = biological target: T1, ATR kinase (Homo sapiens, UniProt Q13535); experiment: ATR Inhibition Assay (radioactive-phosphate incorporation); assay type: biochemical; settings: Ki(app); 5 nM full-length ATR, 10 μM ATP, 800 μM target peptide, 25° C.
T1 construct: Assays were carried out at 25° C. in the presence of 5 nM full-length ATR
Procedure: Compounds were screened for their ability to inhibit ATR kinase using a radioactive-phosphate incorporation assay. Assays were carried out in a mixture of 50 mM Tris/HCl (pH 7.5), 10 mM MgCl2 and 1 mM DTT. Final substrate concentrations were 10 μM [γ-33P]ATP (3 mCi 33P ATP/mmol ATP, Perkin Elmer) and 800 μM target peptide (ASELPASQPQPFSAKKK (SEQ. ID NO: 1)).
Assays were carried out at 25° C. in the presence of 5 nM full-length ATR. An assay stock buffer solution was prepared containing all of the reagents listed above, with the exception of ATP and the test compound of interest. 13.5 μL of the stock solution was placed in a 96 well plate followed by addition of 2 μL of DMSO stock containing serial dilutions of the test compound (typically starting from a final concentration of 15 μM with 3-fold serial dilutions) in duplicate (final DMSO concentration 7%). The plate was pre-incubated for 10 minutes at 25° C. and the reaction initiated by addition of 15 μL [γ-33P]ATP (final concentration 10 μM).
The reaction was stopped after […] by the addition of 30 μL, 0.1M phosphoric acid containing 2 mM ATP. A multiscreen phosphocellulose filter 96-well plate (Millipore, Cat no. MAPHN0B50) was pretreated with 100 μL 0.2M phosphoric acid prior to the addition of 45 μL of the stopped assay mixture. The plate was washed with 5×200 μL 0.2M phosphoric acid. After drying, 100 μL Optiphase ‘SuperMix’ liquid scintillation cocktail (Perkin Elmer) was added to the well prior to scintillation counting (1450 Microbeta Liquid Scintillation Counter, Wallac).
After removing mean background values for all of the data points, Ki(app) data were calculated from non-linear regression analysis of the initial rate data using the Prism software package (GraphPad Prism version 3.0cx for Macintosh, GraphPad Software, San Diego Calif., USA).
Compounds with a Ki value of <0.01 μM are marked with “+++.” Compounds with a Ki value >0.01 μM but <1 μM are marked with “++.” Compounds with a Ki value >1 μM but <5 μM are marked with “+.”

[1] = test system: HCT116 colorectal cancer cells; experiment: Cisplatin Sensitization Assay (96 h cell viability MTS); assay type: cell-based; settings: concentration of compound required to reduce the IC50 of Cisplatin alone by at least 3-fold; HCT116, 96 h MTS
Procedure: Compounds can be screened for their ability to sensitize HCT116 colorectal cancer cells to Cisplatin using a 96 h cell viability (MTS) assay. […] Compounds and Cisplatin are then both added simultaneously to the cell media in 2-fold serial dilutions from a top final concentration of 10 μM as a full matrix of concentrations in a final cell volume of 200 μl, and the cells are then incubated at 37° C. in 5% CO2. After 96 h, 40 μl of MTS reagent (Promega G358a) is added to each well and the cells are incubated for 1 h at 37° C. in 5% CO2. Finally, absorbance is measured at 490 nm using a SpectraMax Plus 384 reader (Molecular Devices) and the concentration of compound required to reduce the IC50 of Cisplatin alone by at least 3-fold (to 1 decimal place) can be reported.
Compounds with a Cisplatin sensitization value of <0.02 μM are marked with “+++.” Compounds with a Cisplatin sensitization value>0.02 μM but <0.2 μM are marked with “++.” Compounds with a Cisplatin sensitization value >0.2 μM but <5 μM are marked with “+.”

T1 sequence (Q13535 whole entry): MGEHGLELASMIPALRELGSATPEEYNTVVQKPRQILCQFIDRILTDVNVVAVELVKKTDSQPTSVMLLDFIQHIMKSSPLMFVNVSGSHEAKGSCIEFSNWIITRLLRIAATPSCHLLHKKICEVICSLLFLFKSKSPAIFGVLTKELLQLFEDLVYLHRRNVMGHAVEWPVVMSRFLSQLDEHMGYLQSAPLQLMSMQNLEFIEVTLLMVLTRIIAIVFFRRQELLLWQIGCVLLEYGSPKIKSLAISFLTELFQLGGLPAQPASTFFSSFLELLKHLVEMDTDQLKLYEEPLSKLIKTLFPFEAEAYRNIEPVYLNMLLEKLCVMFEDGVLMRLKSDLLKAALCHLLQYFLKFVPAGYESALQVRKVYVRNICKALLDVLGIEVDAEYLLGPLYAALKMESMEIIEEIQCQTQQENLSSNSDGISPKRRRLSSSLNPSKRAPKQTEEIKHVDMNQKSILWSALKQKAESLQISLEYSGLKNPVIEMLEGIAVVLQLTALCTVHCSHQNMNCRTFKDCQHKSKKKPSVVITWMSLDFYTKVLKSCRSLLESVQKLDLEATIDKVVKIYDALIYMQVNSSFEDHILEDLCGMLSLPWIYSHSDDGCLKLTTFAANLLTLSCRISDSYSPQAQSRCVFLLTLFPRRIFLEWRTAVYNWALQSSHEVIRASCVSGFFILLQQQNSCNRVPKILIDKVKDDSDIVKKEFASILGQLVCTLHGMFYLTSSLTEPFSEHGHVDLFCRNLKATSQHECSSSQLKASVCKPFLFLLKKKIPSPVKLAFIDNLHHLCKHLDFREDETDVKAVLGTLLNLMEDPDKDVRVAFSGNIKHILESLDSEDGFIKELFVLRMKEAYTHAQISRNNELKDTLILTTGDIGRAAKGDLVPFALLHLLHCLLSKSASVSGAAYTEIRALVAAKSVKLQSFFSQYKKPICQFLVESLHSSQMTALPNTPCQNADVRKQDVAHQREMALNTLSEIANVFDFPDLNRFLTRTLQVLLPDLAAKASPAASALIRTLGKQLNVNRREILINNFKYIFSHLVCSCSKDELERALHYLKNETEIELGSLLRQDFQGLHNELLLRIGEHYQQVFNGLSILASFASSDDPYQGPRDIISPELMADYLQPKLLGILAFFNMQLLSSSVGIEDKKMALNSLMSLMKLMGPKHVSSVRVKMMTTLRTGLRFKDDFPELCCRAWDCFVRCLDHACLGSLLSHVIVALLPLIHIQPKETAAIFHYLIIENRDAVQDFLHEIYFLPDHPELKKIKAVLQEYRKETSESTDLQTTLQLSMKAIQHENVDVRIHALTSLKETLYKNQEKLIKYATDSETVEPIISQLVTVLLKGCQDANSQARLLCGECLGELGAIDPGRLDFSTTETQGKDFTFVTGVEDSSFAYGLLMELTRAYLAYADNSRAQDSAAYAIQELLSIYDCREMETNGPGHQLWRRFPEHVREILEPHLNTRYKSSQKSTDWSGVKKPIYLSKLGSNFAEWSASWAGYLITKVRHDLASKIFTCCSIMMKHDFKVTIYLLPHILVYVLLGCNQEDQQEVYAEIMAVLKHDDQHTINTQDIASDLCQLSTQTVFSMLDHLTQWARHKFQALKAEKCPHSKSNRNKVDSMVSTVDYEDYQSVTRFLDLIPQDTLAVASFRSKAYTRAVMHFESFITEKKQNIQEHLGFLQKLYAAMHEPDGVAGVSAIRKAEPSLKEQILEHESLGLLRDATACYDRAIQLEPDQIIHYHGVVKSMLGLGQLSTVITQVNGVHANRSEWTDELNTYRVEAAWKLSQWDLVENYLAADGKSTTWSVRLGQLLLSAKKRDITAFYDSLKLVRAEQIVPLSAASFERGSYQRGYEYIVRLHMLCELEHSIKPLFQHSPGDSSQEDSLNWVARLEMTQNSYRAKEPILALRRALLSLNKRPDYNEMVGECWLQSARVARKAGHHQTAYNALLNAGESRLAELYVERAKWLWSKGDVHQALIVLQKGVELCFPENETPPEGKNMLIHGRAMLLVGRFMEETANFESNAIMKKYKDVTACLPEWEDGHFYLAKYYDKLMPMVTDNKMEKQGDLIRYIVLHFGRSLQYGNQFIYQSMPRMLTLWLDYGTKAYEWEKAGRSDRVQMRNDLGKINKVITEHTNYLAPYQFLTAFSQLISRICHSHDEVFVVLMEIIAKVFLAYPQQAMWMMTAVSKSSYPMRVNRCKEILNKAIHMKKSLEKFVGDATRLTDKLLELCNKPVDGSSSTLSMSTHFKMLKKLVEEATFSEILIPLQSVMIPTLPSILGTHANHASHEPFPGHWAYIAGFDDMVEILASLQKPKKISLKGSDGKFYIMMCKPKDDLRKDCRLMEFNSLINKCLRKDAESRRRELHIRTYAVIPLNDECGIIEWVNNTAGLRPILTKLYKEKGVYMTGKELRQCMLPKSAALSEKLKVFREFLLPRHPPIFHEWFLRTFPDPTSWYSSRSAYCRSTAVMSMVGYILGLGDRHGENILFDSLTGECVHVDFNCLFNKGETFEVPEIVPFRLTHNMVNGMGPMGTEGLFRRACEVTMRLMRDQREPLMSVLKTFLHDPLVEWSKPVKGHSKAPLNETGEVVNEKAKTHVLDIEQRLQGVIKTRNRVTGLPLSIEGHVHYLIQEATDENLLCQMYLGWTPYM

Ki (ATR kinase) [nM]	SMILES	Synergy with Cisplatin [1]
10 to 1000	CN1CCC[C@H]1COc1ccncc1NC(=O)c1c(N)nn2ccc(C(F)(F)F)nc12 [I-O-33, (S)-2-amino-N-(4-((1-methylpyrrolidin-2-yl)methoxy)pyridin-3-yl)-5-(trifluoromethyl)pyrazolo[1,5-a]pyrimidine-3-carboxamide]	++ (Compounds with a Cisplatin sensitization value>0.02 μM but <0.2 μM are marked with “++.”)
10 to 1000	CN(C)C1CCC(Oc2ccncc2NC(=O)c2c(N)nn3ccc(C(F)(F)F)nc23)CC1 (centres unmarked) [I-O-35, 2-amino-N-(4-((4-(dimethylamino)cyclohexyl)oxy)pyridin-3-yl)-5-(trifluoromethyl)pyrazolo[1,5-a]pyrimidine-3-carboxamide]	+++ (Compounds with a Cisplatin sensitization value of <0.02 μM are marked with “+++.”)
10 to 1000	CN(C)CCOCCOc1ccncc1NC(=O)c1c(N)nn2ccc(C(F)(F)F)nc12 [I-O-36, 2-amino-N-(4-(2-(2-(dimethylamino)ethoxy)ethoxy)pyridin-3-yl)-5-(trifluoromethyl)pyrazolo[1,5-a]pyrimidine-3-carboxamide]	++ (Compounds with a Cisplatin sensitization value>0.02 μM but <0.2 μM are marked with “++.”)
10 to 1000	Nc1nn2ccc(C(F)(F)F)nc2c1C(=O)Nc1cnccc1OCC1CCC(N)CC1 (centres unmarked) [I-O-37, 2-amino-N-(4-((4-aminocyclohexyl)methoxy)pyridin-3-yl)-5-(trifluoromethyl)pyrazolo[1,5-a]pyrimidine-3-carboxamide]	++ (Compounds with a Cisplatin sensitization value>0.02 μM but <0.2 μM are marked with “++.”)
10 to 1000	Nc1nn2ccc(C(F)(F)F)nc2c1C(=O)Nc1cnccc1OCCN1CC2(COC2)C1 [I-O-38, N-(4-(2-(2-oxa-6-azaspiro[3.3]heptan-6-yl)ethoxy)pyridin-3-yl)-2-amino-5-(trifluoromethyl)pyrazolo[1,5-a]pyrimidine-3-carboxamide]	+ (Compounds with a Cisplatin sensitization value >0.2 μM but <5 μM are marked with “+.”)
10 to 1000	CN1CC[C@H](Oc2ccncc2NC(=O)c2c(N)nn3ccc(C(F)(F)F)nc23)C1 [I-O-40, (S)-2-amino-N-(4-((1-methylpyrrolidin-3-yl)oxy)pyridin-3-yl)-5-(trifluoromethyl)pyrazolo[1,5-a]pyrimidine-3-carboxamide]	++ (Compounds with a Cisplatin sensitization value>0.02 μM but <0.2 μM are marked with “++.”)
10 to 1000	Nc1nn2ccc(C(F)(F)F)nc2c1C(=O)Nc1cnccc1OC1CCNCC1 [I-O-41, 2-amino-N-(4-(piperidin-4-yloxy)pyridin-3-yl)-5-(trifluoromethyl)pyrazolo[1,5-a]pyrimidine-3-carboxamide]	++ (Compounds with a Cisplatin sensitization value>0.02 μM but <0.2 μM are marked with “++.”)
10 to 1000	CN(C)C1CCC(COc2ccncc2NC(=O)c2c(N)nn3ccc(C(F)(F)F)nc23)CC1 (centres unmarked) [I-O-42, 2-amino-N-(4-((4-(dimethylamino)cyclohexyl)methoxy)pyridin-3-yl)-5-(trifluoromethyl)pyrazolo[1,5-a]pyrimidine-3-carboxamide]	+++ (Compounds with a Cisplatin sensitization value of <0.02 μM are marked with “+++.”)
10 to 1000	COCCN1CCC[C@@H](Oc2ccncc2NC(=O)c2c(N)nn3ccc(C(F)(F)F)nc23)C1 [I-O-43, (R)-2-amino-N-(4-((1-(2-methoxyethyl)piperidin-3-yl)oxy)pyridin-3-yl)-5-(trifluoromethyl)pyrazolo[1,5-a]pyrimidine-3-carboxamide]	++ (Compounds with a Cisplatin sensitization value>0.02 μM but <0.2 μM are marked with “++.”)

SMILES	Ki (ATR kinase) [nM]	Synergy with Cisplatin [1]
CN(C)[C@H]1C[C@@H](Oc2ccncc2NC(=O)c2c(N)nn3ccc(C(F)(F)F)nc23)C1 [I-O-34, 2-amino-N-(4-((1s,3s)-3-(dimethylamino)cyclobutoxy)pyridin-3-yl)-5-(trifluoromethyl)pyrazolo[1,5-a]pyrimidine-3-carboxamide]	10 to 1000	++ (Compounds with a Cisplatin sensitization value>0.02 μM but <0.2 μM are marked with “++.”)
